How the values were obtained:
Format in all cases: functional
Rattus norvegicus [1] = test: Analgesic activity in Wistar albino rat assessed as reaction time required for tail flicking at 20 mg/kg after 90 mins by tail-flick method relative to control
Rattus norvegicus [2] = test: Antiinflammatory activity in Wistar albino rat assessed as reduction of carrageenan-induced paw volume at 20 mg/kg, po administered 30 mins before carrageenan challenge measured after 0.5 hr relative to control; design: scale not given: the % may be the effect or the level left
Rattus norvegicus [3] = test: Analgesic activity in Wistar albino rat assessed as reaction time required for tail flicking at 20 mg/kg after 30 mins by tail-flick method relative to control
Rattus norvegicus [4] = test: Analgesic activity in Wistar albino rat assessed as reaction time required for tail flicking at 20 mg/kg after 60 mins by tail-flick method relative to control
Rattus norvegicus [5] = test: Antiinflammatory activity in Wistar albino rat assessed as reduction of carrageenan-induced paw volume at 20 mg/kg, po administered 30 mins before carrageenan challenge measured after 1 hr relative to control; design: scale not given: the % may be the effect or the level left
Rattus norvegicus [6] = test: Antiinflammatory activity in Wistar albino rat assessed as reduction of carrageenan-induced paw volume at 20 mg/kg, po administered 30 mins before carrageenan challenge measured after 2 hrs relative to control; design: scale not given: the % may be the effect or the level left

## O=C(O)CN1C(=O)CSc2ccccc21
Rattus norvegicus [1]
  Time: 6.875 s
Rattus norvegicus [2]
  Activity: 38.51%
Rattus norvegicus [3]
  Time: 5.775 s
Rattus norvegicus [4]
  Time: 6.5 s
Rattus norvegicus [5]
  Activity: 30.07%
Rattus norvegicus [6]
  Activity: 27.93%

## CN1CCN(Cn2nc(CN3C(=O)CSc4ccccc43)n(/N=C/c3ccccc3)c2=S)CC1
Rattus norvegicus [1]
  Time: 4.225 s
Rattus norvegicus [2]
  Activity: 8.1%
Rattus norvegicus [3]
  Time: 3.5 s
Rattus norvegicus [4]
  Time: 4.3 s
Rattus norvegicus [5]
  Activity: 9.8%
Rattus norvegicus [6]
  Activity: 10.39%

## O=C1CSc2ccccc2N1Cc1nn(CN2CCOCC2)c(=S)n1/N=C/c1ccccc1
Rattus norvegicus [1]
  Time: 3.4 s
Rattus norvegicus [2]
  Activity: 5.4%
Rattus norvegicus [3]
  Time: 3.175 s
Rattus norvegicus [4]
  Time: 3.375 s
Rattus norvegicus [5]
  Activity: 10.13%
Rattus norvegicus [6]
  Activity: 10.39%

## O=C1CSc2ccccc2N1Cc1nn(CN2CCCCC2)c(=S)n1/N=C/c1ccccc1
Rattus norvegicus [1]
  Time: 5.5 s
Rattus norvegicus [2]
  Activity: 40.21%
Rattus norvegicus [3]
  Time: 3.925 s
Rattus norvegicus [4]
  Time: 5.3 s
Rattus norvegicus [5]
  Activity: 41.18%
Rattus norvegicus [6]
  Activity: 41.23%

## CN1CCN(Cn2nc(CN3C(=O)CSc4ccccc43)n(/N=C/c3ccc([N+](=O)[O-])cc3)c2=S)CC1
Rattus norvegicus [1]
  Time: 6.05 s
Rattus norvegicus [2]
  Activity: 33.11%
Rattus norvegicus [3]
  Time: 5.475 s
Rattus norvegicus [4]
  Time: 5.975 s
Rattus norvegicus [5]
  Activity: 40.53%
Rattus norvegicus [6]
  Activity: 37.34%

## O=C1CSc2ccccc2N1Cc1nn(CN2CCOCC2)c(=S)n1/N=C/c1ccc([N+](=O)[O-])cc1
Rattus norvegicus [1]
  Time: 6.025 s
Rattus norvegicus [2]
  Activity: 37.84%
Rattus norvegicus [3]
  Time: 5.425 s
Rattus norvegicus [4]
  Time: 6.05 s
Rattus norvegicus [5]
  Activity: 42.16%
Rattus norvegicus [6]
  Activity: 31.82%

## O=C1CSc2ccccc2N1Cc1nn(CN2CCCCC2)c(=S)n1/N=C/c1ccc([N+](=O)[O-])cc1
Rattus norvegicus [1]
  Time: 4.875 s
Rattus norvegicus [2]
  Activity: 52.71%
Rattus norvegicus [3]
  Time: 5.1 s
Rattus norvegicus [4]
  Time: 5.3 s
Rattus norvegicus [5]
  Activity: 55.56%
Rattus norvegicus [6]
  Activity: 58.77%

## CN1CCN(Cn2nc(CN3C(=O)CSc4ccccc43)n(/N=C/c3ccc(Cl)cc3)c2=S)CC1
Rattus norvegicus [1]
  Time: 5 s
Rattus norvegicus [2]
  Activity: 38.51%
Rattus norvegicus [3]
  Time: 4.575 s
Rattus norvegicus [4]
  Time: 5.375 s
Rattus norvegicus [5]
  Activity: 44.12%
Rattus norvegicus [6]
  Activity: 42.86%

## O=C1CSc2ccccc2N1Cc1nn(CN2CCOCC2)c(=S)n1/N=C/c1ccc(Cl)cc1
Rattus norvegicus [1]
  Time: 4.075 s
Rattus norvegicus [2]
  Activity: 28.04%
Rattus norvegicus [3]
  Time: 4.8 s
Rattus norvegicus [4]
  Time: 4.875 s
Rattus norvegicus [5]
  Activity: 32.35%
Rattus norvegicus [6]
  Activity: 29.55%

## O=C1CSc2ccccc2N1Cc1nn(CN2CCOCC2)c(=S)n1/N=C/c1ccc(O)cc1
Rattus norvegicus [1]
  Time: 6 s
Rattus norvegicus [2]
  Activity: 53.38%
Rattus norvegicus [3]
  Time: 4.3 s
Rattus norvegicus [4]
  Time: 5 s
Rattus norvegicus [5]
  Activity: 45.1%
Rattus norvegicus [6]
  Activity: 38.97%

## CC(C)=CCN1CC[C@]2(C)c3cc(O)ccc3C[C@H]1[C@H]2C [(+)-PENTAZOCINE]
Rattus norvegicus [1]
  Time: 7.45 s
Rattus norvegicus [3]
  Time: 6.4 s
Rattus norvegicus [4]
  Time: 7.175 s

## COc1ccc2c(c1)c(CC(=O)O)c(C)n2C(=O)c1ccc(Cl)cc1 [INDOMETHACIN]
Rattus norvegicus [2]
  Activity: 66.89%
Rattus norvegicus [5]
  Activity: 70.26%
Rattus norvegicus [6]
  Activity: 69.81%

From ChEMBL document CHEMBL1821715, “Synthesis, characterization and pharmacological activity of 4-{[1-substituted aminomethyl-4-arylideneamino-5-sulfanyl-4,5-dihydro-1H-1,2,4-triazol-3-yl]methyl}-2H-1,4-benzothiazin-3(4H)-ones” (2011)
